ChEMBL document CHEMBL1201862, “PubChem BioAssay data set” (2004)
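These data come from cells grown in 96-well plates and exposed to compound for 48 hours at five concentrations. Abbreviation: GI50, concentration required for 50% inhibition of growth.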 The source made the active and inactive calls. No stated cut-off is given here; in the data, active = GI50 up to about 1.1 µM and inactive = higher.

Tests used:
Test in all cases: NCI-60 cell line screen, 48 h
[1] = tested on: SK-MEL-2
[2] = tested on: UACC-257
[3] = tested on: HCC 2998
[4] = tested on: M14
[5] = tested on: SNB-19
[6] = tested on: CAKI-1
[7] = tested on: SK-MEL-28
[8] = tested on: U-251
[9] = tested on: OVCAR-4
[10] = tested on: KM12
[11] = tested on: SK-MEL-5
[12] = tested on: SF-539
[13] = tested on: DU-145
[14] = tested on: OVCAR-5
[15] = tested on: CCRF-CEM
[16] = tested on: SW-620
[17] = tested on: OVCAR-8
[18] = tested on: 786-0
[19] = tested on: SF-295
[20] = tested on: NCI-H226

Row | SMILES | GI50 [1] | GI50 [2] | GI50 [3] | GI50 [4] | GI50 [5] | GI50 [6] | GI50 [7] | GI50 [8] | GI50 [9] | GI50 [10] | GI50 [11] | GI50 [12] | GI50 [13] | GI50 [14] | GI50 [15] | GI50 [16] | GI50 [17] | GI50 [18] | GI50 [19] | GI50 [20]
1 | CCC1C(=O)OCc2c1cc1n(c2=O)Cc2cc3ccccc3nc2-1 (stereo not given) | > 100 µM (inactive) | 50.7 µM (inactive) | 25.9 µM (inactive) | 3.38 µM (inactive) | 5.13 µM (inactive) | 2.17 µM (inactive) | 13.2 µM (inactive) | 3.53 µM (inactive) | > 81.8 µM (inactive) | 50.9 µM (inactive) | 5.79 µM (inactive) | 1.73 µM (inactive) | 2.98 µM (inactive) | 33.4 µM (inactive) | 0.377 µM (active) | 7.16 µM (inactive) | 5.69 µM (inactive) | 3.23 µM (inactive) | 2.38 µM (inactive) | 10.8 µM (inactive)
2 | CCN1/C(=C/C#C/C(C)=C\c2sc3ccc(Cl)cc3[n+]2CC)Sc2ccc(Cl)cc21 | 1.98 µM (inactive) | 3.34 µM (inactive) | 4.07 µM (inactive) | 3.62 µM (inactive) | 4.09 µM (inactive) | 2.82 µM (inactive) | 9.77 µM (inactive) | 3.3 µM (inactive) | 6.53 µM (inactive) | 3.1 µM (inactive) | 2.09 µM (inactive) | 3.57 µM (inactive) | 3.68 µM (inactive) | 7.94 µM (inactive) | 0.389 µM (active) | 2.43 µM (inactive) | 3.24 µM (inactive) | 3.1 µM (inactive) | 3.4 µM (inactive) | 3.82 µM (inactive)
3 | Cc1ccc2c(ccc(/C=C/c3ccc(O)c4ncccc34)[n+]2C)c1 | 17.3 µM (inactive) | 8.04 µM (inactive) | 3.56 µM (inactive) | 13.6 µM (inactive) | 12.9 µM (inactive) | 5.55 µM (inactive) | 10.3 µM (inactive) | 6.62 µM (inactive) | 5.09 µM (inactive) | 9.08 µM (inactive) | 14.1 µM (inactive) | 7.18 µM (inactive) | > 32.1 µM (inactive) | 25.2 µM (inactive) | 2.42 µM (inactive) | 4.65 µM (inactive) | 2.38 µM (inactive) | 5.57 µM (inactive) | 13.8 µM (inactive) | 24.8 µM (inactive)
4 | CCNC(=O)c1cc(/C=C/c2ccc([N+](=O)[O-])o2)nc2ccccc12 | 3.52 µM (inactive) | 3.67 µM (inactive) | 5.26 µM (inactive) | 2.34 µM (inactive) | 54.7 µM (inactive) | 7.96 µM (inactive) | 5.32 µM (inactive) | 71.9 µM (inactive) | > 100 µM (inactive) | 98.6 µM (inactive) | 1.5 µM (inactive) | 23.3 µM (inactive) | 2.74 µM (inactive) | > 100 µM (inactive) | 3.18 µM (inactive) | 13.7 µM (inactive) | 15.8 µM (inactive) | 11.3 µM (inactive) | 41.7 µM (inactive) | 5.15 µM (inactive)
5 | COC(=O)c1c(C#C[Si](C)(C)C)c(C#C[Si](C)(C)C)c(C#C[Si](C)(C)C)c(C#C[Si](C)(C)C)c1C(=O)OC | > 100 µM (inactive) | > 100 µM (inactive) | > 100 µM (inactive) | > 100 µM (inactive) | > 100 µM (inactive) | > 100 µM (inactive) | > 100 µM (inactive) | > 100 µM (inactive) | > 100 µM (inactive) | > 100 µM (inactive) | > 100 µM (inactive) | > 100 µM (inactive) | > 100 µM (inactive) | > 100 µM (inactive) | > 100 µM (inactive) | > 100 µM (inactive) | > 100 µM (inactive) | > 100 µM (inactive) | > 100 µM (inactive) | > 100 µM (inactive)
6 | CC(C)(C)OC(=O)N(CCCCNC(=O)OCc1ccccc1)CCCNC(=O)OCc1ccccc1 | 55.7 µM (inactive) | 26.4 µM (inactive) | 98.6 µM (inactive) | 51.8 µM (inactive) | > 100 µM (inactive) | 1.96 µM (inactive) | > 100 µM (inactive) | 35.6 µM (inactive) | 33 µM (inactive) | 35.5 µM (inactive) | 5.93 µM (inactive) | > 100 µM (inactive) | > 100 µM (inactive) | > 100 µM (inactive) | 16.3 µM (inactive) | 71 µM (inactive) | 32.4 µM (inactive) | 91 µM (inactive) | 25.9 µM (inactive) | > 100 µM (inactive)
7 | CC(=O)OC12OC(C)(C3C(=O)N(c4ccccc4)C(=O)C31)N(c1ccccc1)C2=O (stereo not given) | > 100 µM (inactive) | 16.7 µM (inactive) | 51.6 µM (inactive) | > 100 µM (inactive) | > 100 µM (inactive) | > 100 µM (inactive) | > 100 µM (inactive) | > 100 µM (inactive) | 51.4 µM (inactive) | > 100 µM (inactive) | > 100 µM (inactive) | > 100 µM (inactive) | > 100 µM (inactive) | > 100 µM (inactive) | > 100 µM (inactive) | > 100 µM (inactive) | > 100 µM (inactive) | > 100 µM (inactive) | > 100 µM (inactive) | > 100 µM (inactive)
8 | OCC1OC(c2scc3c(=S)[nH]cnc23)C(O)C1O (stereo not given) | 13.4 µM (inactive) | 42.4 µM (inactive) | 7.03 µM (inactive) | 6.53 µM (inactive) | 72.3 µM (inactive) | 6.59 µM (inactive) | 74 µM (inactive) | > 93.3 µM (inactive) | 4.01 µM (inactive) | 24.5 µM (inactive) | 22.7 µM (inactive) | 8.81 µM (inactive) | 0.859 µM (active) | 26.1 µM (inactive) | 20.8 µM (inactive) | 6.76 µM (inactive) | 1.24 µM (inactive) | 8.99 µM (inactive) | 29 µM (inactive) | 16 µM (inactive)
9 | CCCCCCCCCCC[N+]1(Cc2ccccc2)CC2CCN(Cc3ccccc3)CC2C1 (stereo not given) | 0.261 µM (active) | 0.288 µM (active) | 0.649 µM (active) | 0.383 µM (active) | 0.371 µM (active) | 1.4 µM (inactive) | 0.665 µM (active) | 0.261 µM (active) | 0.679 µM (active) | 0.247 µM (active) | 0.173 µM (active) | 1.15 µM (inactive) | 0.47 µM (active) | 1.55 µM (inactive) | 0.261 µM (active) | 0.381 µM (active) | 0.422 µM (active) | 1.03 µM (active) | 1.09 µM (active) | 0.67 µM (active)
10 | Cc1ccc2nc3c(C)c(Cl)c(=O)cc-3sc2c1 | 17.2 µM (inactive) | 16.6 µM (inactive) | 40.3 µM (inactive) | 15.2 µM (inactive) | 24 µM (inactive) | 28.2 µM (inactive) | 32.7 µM (inactive) | 12.7 µM (inactive) | 18 µM (inactive) | 23.1 µM (inactive) | 13.6 µM (inactive) | 13.1 µM (inactive) | 44 µM (inactive) | 34.3 µM (inactive) | 3.63 µM (inactive) | 28.6 µM (inactive) | 11.2 µM (inactive) | 49.7 µM (inactive) | 23.3 µM (inactive) | 5.06 µM (inactive)
11 | O=C1Nc2ccc([N+](=O)[O-])cc2/C1=N/NC(=S)Nc1ccccc1 | 11.9 µM (inactive) | 12.7 µM (inactive) | 3.6 µM (inactive) | 6.01 µM (inactive) | 5.35 µM (inactive) | 3.53 µM (inactive) | 16.5 µM (inactive) | 4.93 µM (inactive) | 7.23 µM (inactive) | 8.41 µM (inactive) | 2.9 µM (inactive) | 12 µM (inactive) | 11.8 µM (inactive) | 12.2 µM (inactive) | 2.16 µM (inactive) | 8.99 µM (inactive) | 5.16 µM (inactive) | 5.43 µM (inactive) | 4.34 µM (inactive) | 18.5 µM (inactive)
